Measured values published in patent US7015244B1 (priority 1998, dated 2006).

What was measured:
tumor = conditions: Phase II, cytotoxic doses; cited from earlier work
[1] = human, inhaled or intranasal
[2] = system: human epidermoid cells, virally infected with HSV-2; conditions: cited from earlier work
[3] = system: human epidermoid cells, virally infected with HSV-2; conditions: cited from earlier work; remark: listed apart in the source
[4] = system: human epidermoid cells, virally infected with HSV-2

| SMILES | hematologic toxicity (tumor) | overall tumor response rate (tumor) | In Vivo Dose for Average 1200 Gram Lungs, Cytotoxic Max [1] [ng] | Trichothecene in Vitro Concentration, Inhibitory 50% [2] [ng/mL] | Trichothecene in Vitro Concentration, Inhibitory 80% [2] [ng/mL] | Trichothecene in Vitro Concentration, Inhibitory 90% [2] [ng/mL] | Trichothecene in Vitro Concentration, Inhibitory 99% [2] [ng/mL] | inhibition of hyperactive protein synthesis [2] [%] | concentrations that did not reduce cell viability [3] | Trichothecene in Vitro Concentration, Cytotoxic Min [4] [ng/mL] | Trichothecene in Vitro Concentration, Toxic Lo [4] [ng/mL] | Trichothecene in Vitro Concentration, Cytotoxic Max ([4]; human) [ng/mL] |
| --- | --- | --- | --- | --- | --- | --- | --- | --- | --- | --- | --- | --- |
| CC(=O)OC[C@]12CCC(C)=C[C@H]1O[C@@H]1[C@H](O)[C@@H](OC(C)=O)[C@@]2(C)[C@]12CO2 [Anguidine] | considerable hematologic toxicity | low |  |  |  |  |  |  |  |  |  |  |
| CC(=O)OC[C@]12CCC(C)=C[C@H]1O[C@@H]1[C@H](O)[C@@H](OC(C)=O)[C@@]2(C)[C@]12CO2 [DAS] |  |  | 240000 | 2.3 | 4.0 | 4.5 | 5.0 | ~99 | up to 200 ng/ml | 6 | 201 | 200 |
